# Experimental data reported in patent US11446264B2, “Memory manipulation via modification of protein kinase C zeta activity” (THE RESEARCH FOUNDATION FOR THE STATE UNIVERSITY OF NEW YORK, priority 2017, dated 2022).
# How the values were obtained:
# [1] = target: T1, PKC zeta (Homo sapiens, UniProt Q05513); test: kinase activity assay ([γ-32P]ATP, e-peptide substrate), PKC zeta; type: biochemical
# T1 construct: made in house
# T1 sequence (Q05513 1-592): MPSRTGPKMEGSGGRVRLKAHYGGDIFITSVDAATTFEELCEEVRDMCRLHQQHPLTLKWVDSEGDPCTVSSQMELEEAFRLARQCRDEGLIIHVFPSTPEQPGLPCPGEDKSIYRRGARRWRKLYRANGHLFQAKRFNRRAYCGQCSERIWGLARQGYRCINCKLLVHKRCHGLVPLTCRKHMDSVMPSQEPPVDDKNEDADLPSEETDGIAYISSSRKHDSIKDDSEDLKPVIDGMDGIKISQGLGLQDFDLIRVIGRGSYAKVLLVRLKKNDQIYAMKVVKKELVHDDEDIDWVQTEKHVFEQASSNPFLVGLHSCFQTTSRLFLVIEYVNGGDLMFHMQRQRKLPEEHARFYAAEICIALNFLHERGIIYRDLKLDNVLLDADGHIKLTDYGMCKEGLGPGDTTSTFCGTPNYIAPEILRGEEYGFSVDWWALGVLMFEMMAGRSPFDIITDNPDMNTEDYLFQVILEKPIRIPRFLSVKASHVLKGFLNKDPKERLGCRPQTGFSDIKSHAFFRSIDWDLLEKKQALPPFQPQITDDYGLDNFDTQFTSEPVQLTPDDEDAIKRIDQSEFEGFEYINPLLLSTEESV
# Experimental: (§1) In separate experiments, PKC zeta and PKM zeta were recombinantly expressed and purified. PKC iota/lambda was purchased from ProQinase GmbH (Freiburg, Germany). The reaction mixture ([…] final volume) contained: 50 mM Tris-HCl (pH 7.4), 10 mM MgCl2, 1 mM DTT, […] e-peptide substrate (ERMRPRKRQGSVRRRV, AnaSpec, Freemont, Calif.), in the presence or absence of phosphatidylserine (5 mg/ml, Avanti Polar Lipids, Alabaster, Ala.), and PKC iota/lambda (184 ng, 0.2 pmol/min per assay) or PKM zeta (4 ng, 0.2 pmolmin-1/assay), in the presence or absence of NSA at concentrations given on the X axis. The reaction, initiated with the addition of […] (final concentration, ˜1-3 μCi [γ-32P]/assay), was for 30 min at 30° C., which is in the linear range for enzyme concentration (data not shown). The reaction was stopped by addition of […] of 100 mM cold ATP and 100 mM EDTA, and 40 ml of the reaction mixture was spotted onto phosphocellulose paper and counted by liquid scintillation. Activity was measured as the difference between counts incorporated in the presence and absence of enzyme. Autonomous kinase activity is defined as activity in the absence of phosphatidylserine. […] Thus, as disclosed herein, administering NSA inhibits activity of PKC zeta and PKM zeta.
# [2] = target: T2, PKC iota/lambda (Homo sapiens, UniProt P41743); test: kinase activity assay ([γ-32P]ATP, e-peptide substrate), PKC iota/lambda; type: biochemical; conditions: at doses up to 10 μM
# T2 construct: purchased ProQinase GmbH (Freiburg, Germany)
# T2 sequence (P41743 1-596): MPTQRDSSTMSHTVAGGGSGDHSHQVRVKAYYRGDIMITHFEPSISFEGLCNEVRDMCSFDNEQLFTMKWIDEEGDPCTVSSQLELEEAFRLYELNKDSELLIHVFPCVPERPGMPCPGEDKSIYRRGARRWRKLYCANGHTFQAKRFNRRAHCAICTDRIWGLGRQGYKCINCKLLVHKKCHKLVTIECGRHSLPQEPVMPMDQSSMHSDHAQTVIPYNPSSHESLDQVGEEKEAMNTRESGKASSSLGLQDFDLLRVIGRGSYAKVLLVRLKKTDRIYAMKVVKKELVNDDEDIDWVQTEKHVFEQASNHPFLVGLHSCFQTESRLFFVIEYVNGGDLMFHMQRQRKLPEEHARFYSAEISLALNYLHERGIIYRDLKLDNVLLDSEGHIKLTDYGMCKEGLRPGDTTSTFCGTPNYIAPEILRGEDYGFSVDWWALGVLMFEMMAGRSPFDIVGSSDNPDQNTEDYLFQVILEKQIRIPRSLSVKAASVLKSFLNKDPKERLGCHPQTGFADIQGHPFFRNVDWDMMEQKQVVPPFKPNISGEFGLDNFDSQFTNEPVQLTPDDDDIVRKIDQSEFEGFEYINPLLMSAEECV
# Experimental: as §1
# [3] = tested on: hippocampal slices from wild-type mice; test: maintenance of LTP in hippocampal slices from wild-type mice; type: cell-based, mouse; conditions: NSA 10 μM applied 3 h post-tetanization, FIG. 3
# Experimental: (§2) Acute mouse hippocampal slices (450 μm) were dissected, bathed in ice-cold dissection buffer, and sliced with a McIlwain tissue slicer in a cold room (4° C.). The dissection buffer contained (in mM): 125 NaCl, 2.5 KCl, 1.25 NaH2PO4, 26 NaHCO3, 11 glucose, 10 MgCl2, and 0.5 CaCl2, and was bubbled with 95% O2/5% CO2 to maintain the pH at 7.4. The slices were immediately transferred into an interface recording chamber (31.5±1° C.). The recording superfusate consisted of (in mM): 118 NaCl, 3.5 KCl, 2.5 CaCl2, 1.3 MgSO4, 1.25 NaH2PO4, 24 NaHCO3, and 15 glucose, bubbled with 95% O2/5% CO2, with a flow rate of 0.5 ml/min. […] Pathway independence was confirmed by the absence of paired-pulse facilitation between the two pathways. The high-frequency stimulation consisted of standard two 100 Hz-1 s tetanic trains, at 25% of spike threshold, spaced 20 s apart, which is optimized to produce a relatively rapid onset of protein synthesis-dependent late-LTP. The maximum slope of the rise of the fEPSP is analyzed on a PC using the WinLTP data acquisition program. Application of NSA (black bar) beginning 3 hr after application of high-frequency stimulation reversed the maintenance of LTP seen during this time period, which is known to require PKC zeta/PKM zeta activity.
# [4] = tested on: hippocampal slices from mice lacking expression of PKC zeta/PKM zeta; test: maintenance of LTP in hippocampal slices from PKC zeta/PKM zeta null mice; type: cell-based, mouse; conditions: FIG. 4
# Experimental: as §2, with “activity. […]” for “activity.”
# [5] = tested on: wild-type mice; test: active place avoidance, long-term memory retention, wild-type mice; type: in vivo, mouse; conditions: 5 nmol in 0.5 μl/hippocampus, 1 day after training, FIG. 5
# Experimental: (§3) A commercial computer-controlled active place avoidance system was used (Bio-Signal Group, Acton, Mass.). The position of the mouse on a 40 cm diameter circular arena rotating at 1 rpm was determined 30 times per second by video tracking from an overhead camera (Tracker, Bio-Signal Group). All experiments used the ‘Room+Arena−’ task variant that challenges the mouse on the rotating arena to avoid a shock zone that was a stationary 60° sector. A constant current foot-shock (60 Hz, 500 ms) was delivered after entering the shock zone for 500 ms and was repeated each 1500 ms until the mouse left the shock zone. The arena rotation periodically transported the animal into the shock zone, forcing it to actively avoid the location of shock. The shock amplitude was 0.2 or 0.3 mA, which was determined for each animal in the first session to be the minimum that elicited flinch or escape responses.
# (§4) A clear wall made from Polyethylene Terephtalate Glycol-modified (PET-G) prevented the animal from jumping off the elevated arena surface. […] Every 33 ms, the software determined the mouse's position, whether it was in the shock zone, and whether to deliver shock. The time series of the tracked positions was analyzed offline (TrackAnalysis, Bio-Signal Group) to extract a number of end point measures. […]
# [6] = tested on: PKCζ-null mice; test: active place avoidance, long-term memory retention, PKC zeta/PKM zeta null mice; type: in vivo, mouse; conditions: 5 nmol in 0.5 μl/hippocampus, 1 day after training, FIG. 5
# Experimental: as §3, §4
# [7] = tested on: wild-type mice; test: active place avoidance, retraining and retesting in a different context after NSA; type: in vivo, mouse; conditions: n's=5, FIG. 6
# Text: Above, representative diagram of training protocol, similar to that described for FIG. 5. After training, memory erasure by NSA injection in hippocampus, and retention testing in one context, mice are immediately retrained and retested in a different context. NSA on relearning ([…] with repeated measurements). There is a significant interaction between the effects of treatment (control, NSA) and trials (pretraining, training, retention in two environments) (F5,40=4.41, P=0.0027). The main effect of treatment is F1,8=3.34, p=0.10. […] Thus, the effects NSA administration has on inhibiting memory are not due to generalized, permanent damage to neural substrates responsible for learning and memory.
smiles,measurement,setting,value
"O=S(=O)(O)c1cc(O)c2c(S(=O)(=O)O)cc(S(=O)(=O)O)cc2c1 [NSA, 1-naphthol-3,6,8-trisulphonic acid]",IC50,"[1]; FIG. 2, mean±SEM, ns=3, 30 min at 30° C., read-out: IC50 as a negative modulator of PKC zeta/PKM zeta activity",100 to 200 nM
same,decrease of PKC zeta/PKM zeta activity,"[1]; FIG. 2, extent of decrease",approximately 50%
same,effect on PKC iota/lambda kinase activity,[2],without effect
same,maintenance of LTP (fEPSP slope),[3],reverses maintenance of LTP
same,maintenance of LTP (fEPSP slope),[4],no effect on maintenance of LTP
same,retention of avoidance (time to first enter the shock zone),[5],inhibited retention of avoidance
same,retention of avoidance (time to first enter the shock zone),[6],did not affect retention testing
same,memory retention of the pre-injection training,[7]; NSA injection in hippocampus,disrupts memory retention
same,memory retention of the post-injection training (different context),[7]; retrained and retested after NSA injection in hippocampus,no effect
